Here are results for 28 compounds from patent US10428083B2, “Heterocyclylmethyl-thienouracile as antagonists of the adenosine-A2B-receptor” (BAYER PHARMA AKTIENGESELLSCHAFT, priority 2015, dated 2019).

Each structure is given as a SMILES string.

For the assay, the target named is human adenosine A2b receptor (Homo sapiens (Human), UniProt P29275). In words: Cellular in vitro reporter gene test for A2b receptor activity (CHO-K1, CRE-luciferase, NECA stimulation). It is filed as cell-based. The following applies: recombinant CHO-K1 cell line, CRE-luciferase reporter, antagonism of EC50 concentration of NECA; in some cases means of several determinations, rounded to two significant figures; read-out: A2b receptor IC50. Summed up: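 CHO-K1 cells with CRE-driven luciferase; antagonists co-incubated with NECA at its EC50, determined in a pre-experiment on each test day. Luciferase read by luminescence 3 h after NECA addition.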
Sequence of human adenosine A2b receptor (P29275 whole entry): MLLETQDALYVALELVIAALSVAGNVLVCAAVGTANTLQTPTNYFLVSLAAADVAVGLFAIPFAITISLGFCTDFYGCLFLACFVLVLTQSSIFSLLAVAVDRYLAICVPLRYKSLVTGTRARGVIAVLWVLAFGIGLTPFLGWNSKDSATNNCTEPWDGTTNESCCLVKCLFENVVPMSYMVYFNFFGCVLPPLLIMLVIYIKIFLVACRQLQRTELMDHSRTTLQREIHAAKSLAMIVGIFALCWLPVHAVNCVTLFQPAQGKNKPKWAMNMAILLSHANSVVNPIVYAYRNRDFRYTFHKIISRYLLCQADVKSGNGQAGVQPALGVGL
In general terms: A reporter such as luciferase makes a cellular process visible.

The IC50 is the concentration needed to halve the response being measured.

For `Cc1c(CN2CCNC2=O)sc2c1c(=O)n(CC(C)(C)C)c(=O)n2CCCF` [Example 201, 3-(2,2-Dimethylpropyl)-1-(3-fluoropropyl)-5-methyl-6-[(2-oxoimidazolidin-1-yl)methyl]thieno[2,3-d]pyrimidine-2,4(1H,3H)-dione], the 50% inhibitory concentration (IC50) was determined as 4.4 nM. `CCn1c(=O)c2c(C)c(CN3CCNC3=O)sc2n(CCS(C)(=O)=O)c1=O` [Example 310, 3-Ethyl-5-methyl-1-[2-(methylsulphonyl)ethyl]-6-[(2-oxoimidazolidin-1-yl)methyl]thieno[2,3-d]pyrimidine-2,4(1H,3H)-dione]: the IC50 is 370 nM.

Consider `Cc1c(CN2CCNC2=O)sc2c1c(=O)n(CC(F)F)c(=O)n2C` [Example 223, 3-(2,2-Difluoroethyl)-1,5-dimethyl-6-[(2-oxoimidazolidin-1-yl)methyl]thieno[2,3-d]pyrimidine-2,4(1H,3H)-dione], for which the half-inhibitory concentration (IC50) worked out at 14 nM. Next, `COCCn1c(=O)n(CC(F)(F)F)c(=O)c2c(C)c(CN3CCNC3=S)sc21` [Example 41, 1-(2-Methoxyethyl)-5-methyl-6-[(2-thioxoimidazolidin-1-yl)methyl]-3-(2,2,2-trifluoroethyl)thieno[2,3-d]pyrimidine-2,4(1H,3H)-dione]: 12 nM; `Cc1c(CN2CCNC2=NC#N)sc2c1c(=O)n(C(C)C)c(=O)n2CC1CCCO1` (racemic) [Example 267, [1-{[3-Isopropyl-5-methyl-2,4-dioxo-1-(tetrahydrofuran-2-ylmethyl)-1,2,3,4-tetrahydrothieno[2,3-d]pyrimidin-6-yl]methyl}imidazolidin-2-ylidene]cyanamide]: 4.6 nM; `Cc1c(CN2CCNC2=O)sc2c1c(=O)n(CC(F)F)c(=O)n2CC1CCO1` (single isomer, unassigned) [Example 217, 3-(2,2-Difluoroethyl)-5-methyl-1-(oxetan-2-ylmethyl)-6-[(2-oxoimidazolidin-1-yl)methyl]thieno[2,3-d]pyrimidine-2,4(1H,3H)-dione]: 79 nM. Next, `CCn1c(=O)c2c(C)c(CN3CCNC3=S)sc2n(CC2CCCCO2)c1=O` (single isomer, unassigned) [Example 141, 3-Ethyl-5-methyl-1-(tetrahydro-2H-pyran-2-ylmethyl)-6-[(2-thioxoimidazolidin-1-yl)methyl]thieno[2,3-d]pyrimidine-2,4(1H,3H)-dione]: 120 nM; `CCn1c(=O)c2c(C)c(CN3CCNC3=S)sc2n(CCC(F)(F)F)c1=O` [Example 28, 3-Ethyl-5-methyl-6-[(2-thioxoimidazolidin-1-yl)methyl]-1-(3,3,3-trifluoropropyl)thieno[2,3-d]pyrimidine-2,4(1H,3H)-dione]: 1.9 nM; `CCn1c(=O)c2c(C)c(CN3CCNC3=S)sc2n(CC2CCCCO2)c1=O` (single isomer, unassigned) [Example 142, 3-Ethyl-5-methyl-1-(tetrahydro-2H-pyran-2-ylmethyl)-6-[(2-thioxoimidazolidin-1-yl)methyl]thieno[2,3-d]pyrimidine-2,4(1H,3H)-dione]: 13 nM. As to `COCCn1c(=O)c2c(C)c(CN3CCNC3=NC#N)sc2n(CCC(F)(F)F)c1=O` [Example 362, [1-{[3-(2-Methoxyethyl)-5-methyl-2,4-dioxo-1-(3,3,3-trifluoropropyl)-1,2,3,4-tetrahydrothieno[2,3-d]pyrimidin-6-yl]methyl}imidazolidin-2-ylidene]cyanamide], the IC50 was found to be 9.4 nM. Next, `Cc1c(CN2CCNC2=O)sc2c1c(=O)n(CC(C)C)c(=O)n2CC1COC1` [Example 199, 3-Isobutyl-5-methyl-1-(oxetan-3-ylmethyl)-6-[(2-oxoimidazolidin-1-yl)methyl]thieno[2,3-d]pyrimidine-2,4(1H,3H)-dione]: 8.1 nM; `COCCn1c(=O)n(C(C)COC)c(=O)c2c(C)c(CN3CCNC3=O)sc21` (single isomer, unassigned) [Example 330, 1-(2-Methoxyethyl)-3-(1-methoxypropan-2-yl)-5-methyl-6-[(2-oxoimidazolidin-1-yl)methyl]thieno[2,3-d]pyrimidine-2,4(1H,3H)-dione]: 220 nM; `Cc1c(CN2CCNC2=O)sc2c1c(=O)n(CC(F)(F)F)c(=O)n2CCC(F)(F)F` [Example 204, 5-Methyl-6-[(2-oxoimidazolidin-1-yl)methyl]-3-(2,2,2-trifluoroethyl)-1-(3,3,3-trifluoropropyl)thieno[2,3-d]pyrimidine-2,4(1H,3H)-dione]: 1.1 nM. On to `Cc1c(CN2CCNC2=NC#N)sc2c1c(=O)n(CC(F)(F)F)c(=O)n2CC1CCCO1` (racemic) [Example 269, [1-{[5-Methyl-2,4-dioxo-1-(tetrahydrofuran-2-ylmethyl)-3-(2,2,2-trifluoroethyl)-1,2,3,4-tetrahydrothieno[2,3-d]pyrimidin-6-yl]methyl}imidazolidin-2-ylidene]cyanamide], for which the IC50 was found to be 24 nM. For `CCOCCn1c(=O)c2c(C)c(CN3CCNC3=O)sc2n(CCCF)c1=O` [Example 411, 3-(2-Ethoxyethyl)-1-(3-fluoropropyl)-5-methyl-6-[(2-oxoimidazolidin-1-yl)methyl]thieno[2,3-d]pyrimidine-2,4(1H,3H)-dione], the IC50 came to 53 nM. For the compound `CCOCCn1c(=O)c2c(C)c(CN3CCNC3=S)sc2n(CCC(F)(F)F)c1=O` [Example 301, 3-(2-Ethoxyethyl)-5-methyl-6-[(2-thioxoimidazolidin-1-yl)methyl]-1-(3,3,3-trifluoropropyl)thieno[2,3-d]pyrimidine-2,4(1H,3H)-dione], the IC50 was 6.5 nM. As to `CCn1c(=O)c2c(C)c(CN3CCNC3=O)sc2n(CC2CCCO2)c1=O` (racemic) [Example 68, 3-Ethyl-5-methyl-6-[(2-oxoimidazolidin-1-yl)methyl]-1-(tetrahydrofuran-2-ylmethyl)thieno[2,3-d]pyrimidine-2,4(1H,3H)-dione (racemate)], the half-inhibitory concentration (IC50) turned out to be 8.9 nM. For `Cc1c(CN2CCNC2=NC#N)sc2c1c(=O)n(C(C)C)c(=O)n2CC1CCO1` (single isomer, unassigned) [Example 266, [1-{[3-Isopropyl-5-methyl-1-(oxetan-2-ylmethyl)-2,4-dioxo-1,2,3,4-tetrahydrothieno[2,3-d]pyrimidin-6-yl]methyl}imidazolidin-2-ylidene]cyanamide], the half-maximal inhibitory concentration (IC50) came to 75 nM. `CCn1c(=O)c2c(C)c(CN3CCNC3=S)sc2n(CC2CCCO2)c1=O` (racemic) [Example 35, 3-Ethyl-5-methyl-1-(tetrahydrofuran-2-ylmethyl)-6-[(2-thioxoimidazolidin-1-yl)methyl]thieno[2,3-d]pyrimidine-2,4(1H,3H)-dione (racemate)]: the IC50 is 6.3 nM. Consider `CCn1c(=O)c2c(C)c(CN3CCNC3=NC#N)sc2n(CCC(F)(F)F)c1=O` [Example 255, [1-{[3-Ethyl-5-methyl-2,4-dioxo-1-(3,3,3-trifluoropropyl)-1,2,3,4-tetrahydrothieno[2,3-d]pyrimidin-6-yl]methyl}imidazolidin-2-ylidene]cyanamide], for which the concentration for half-maximal inhibition (IC50) was 13 nM. In the case of `CCOCCn1c(=O)n(CC)c(=O)c2c(C)c(CN3CCNC3=O)sc21` [Example 60, 1-(2-Ethoxyethyl)-3-ethyl-5-methyl-6-[(2-oxoimidazolidin-1-yl)methyl]thieno[2,3-d]pyrimidine-2,4(1H,3H)-dione], the half-inhibitory concentration (IC50) is 13 nM. `COC(C)Cn1c(=O)c2c(C)c(CN3CCNC(=O)C3=O)sc2n(CCC(F)(F)F)c1=O` (single isomer, unassigned) [Example 495, 6-[(2,3-Dioxopiperazin-1-yl)methyl]-3-(2-methoxypropyl)-5-methyl-1-(3,3,3-trifluoropropyl)thieno[2,3-d]pyrimidine-2,4(1H,3H)-dione]: the IC50 was found to be 57 nM. Next, `COCCn1c(=O)c2c(C)c(CN3CCNC3=NC#N)sc2n(CCOC)c1=O` [Example 363, [1-{[1,3-Bis(2-methoxyethyl)-5-methyl-2,4-dioxo-1,2,3,4-tetrahydrothieno[2,3-d]pyrimidin-6-yl]methyl}imidazolidin-2-ylidene]cyanamide]: 19 nM. Then `CCn1c(=O)c2c(C)c(CN3Cc4ccccc4C3=O)sc2n(CCC(F)(F)F)c1=O` [Example 11, 3-Ethyl-5-methyl-6-[(1-oxo-1,3-dihydro-2H-isoindol-2-yl)methyl]-1-(3,3,3-trifluoropropyl)thieno[2,3-d]pyrimidine-2,4(1H,3H)-dione], with 19 nM.

As to `CCn1c(=O)c2c(C)c(CN3CCNC3=O)sc2n(CCOC(F)(F)F)c1=O` [Example 57, 3-Ethyl-5-methyl-6-[(2-oxoimidazolidin-1-yl)methyl]-1-[2-(trifluoromethoxy)ethyl]thieno[2,3-d]pyrimidine-2,4(1H,3H)-dione], the IC50 stood at 0.88 nM.

In the case of `Cc1c(Cn2nc[nH]c2=O)sc2c1c(=O)n(CC(F)(F)F)c(=O)n2CCC(F)(F)F` [Example 432, 5-Methyl-6-[(5-oxo-4,5-dihydro-1H-1,2,4-triazol-1-yl)methyl]-3-(2,2,2-trifluoroethyl)-1-(3,3,3-trifluoropropyl)thieno[2,3-d]pyrimidine-2,4(1H,3H)-dione], the concentration for half-maximal inhibition (IC50) amounted to 92 nM. Turning to `[2H]C([2H])(c1sc2c(c1C)c(=O)n(CC(F)(F)F)c(=O)n2CCOC)N1CCNC1=NC#N` [Example 513, [1-{[1-(2-Methoxyethyl)-5-methyl-2,4-dioxo-3-(2,2,2-trifluoroethyl)-1,2,3,4-tetrahydrothieno[2,3-d]pyrimidin-6-yl](dideutero)methyl}imidazolidin-2-ylidene]cyanamide], the IC50 is 8.4 nM. Consider `COCCn1c(=O)n(CC(C)C)c(=O)c2c(C)c(CN3CCN(C=O)C3=S)sc21` [Example 46, 3-{[3-Isobutyl-1-(2-methoxyethyl)-5-methyl-2,4-dioxo-1,2,3,4-tetrahydrothieno[2,3-d]pyrimidin-6-yl]methyl}-2-thioxoimidazolidine-1-carbaldehyde], for which the concentration for half-maximal inhibition (IC50) amounted to 29 nM.
